Measurements published in BindingDB's records for doi:10.1021/acs.jmedchem.5b01331 (2016).

assay: Antagonist activity at recombinant human GPR55 expressed in HEK293 cells assessed as inhibition of LPI mediated receptor activation by measuring LPI EC50 after 5 mins by xCELLigence assay (Rvb = 1.6 to 4.1 nM)

Row | SMILES | EC50
1 | COc1ccc2c(c1)OC(C)(C)c1cn(CCN3CCN(C(=O)C4CCCO4)CC3)nc1-2 (centres undefined) | 25 nM
2 | COc1ccc2c(c1)OC(C)(C)c1cn(CCN3CCN(C(=O)c4ccccc4)CC3)nc1-2 | 16 nM
3 | COc1ccc(N2CCN(CC(=O)NCn3ncc4c3-c3ccc(OC)cc3OC4(C)C)CC2)cc1 | 27 nM
4 | COc1ccc2c(c1)OC(C)(C)c1cn(CNC(=O)CN3CCN(c4cccc(C)c4C)CC3)nc1-2 | 30 nM
5 | COc1ccc2c(c1)OC(C)(C)c1cn(CNC(=O)CN3CCN(c4ccccc4OC)CC3)nc1-2 | 28 nM
6 | COc1ccc2c(c1)OC(C)(C)c1cn(CNC(=O)CN3CCN(c4ccccc4)CC3)nc1-2 | 32 nM
7 | COc1ccc2c(c1)OC(C)(C)c1cnn(CNC(=O)CN3CCN(c4ccccc4)CC3)c1-2 | 28 nM
8 | COc1ccc2c(c1)OC(C)(C)c1cnn(CCN3CCN(C(=O)c4cccs4)CC3)c1-2 | 29 nM
9 | COc1ccc2c(c1)OC(C)(C)c1cnn(CCN3CCN(C(=O)c4ccco4)CC3)c1-2 | 20 nM
